Results published in paper PMC10819767, “An ADAM10 Exosite Inhibitor Is Efficacious in an In Vivo Collagen-Induced Arthritis Model” (Pharmaceuticals, 2024).

Experiments:
ADAM10 = target: T1, ADAM10 (Homo sapiens, UniProt O14672); test: ADAM10 enzyme assay with glycosylated substrate DM2; format: biochemical; conditions: for activity against ADAM10 (in words): SAR discussion
T1 construct: purchased R & D Systems (Minneapolis, MN, USA)
T1 sequence (O14672 214-748): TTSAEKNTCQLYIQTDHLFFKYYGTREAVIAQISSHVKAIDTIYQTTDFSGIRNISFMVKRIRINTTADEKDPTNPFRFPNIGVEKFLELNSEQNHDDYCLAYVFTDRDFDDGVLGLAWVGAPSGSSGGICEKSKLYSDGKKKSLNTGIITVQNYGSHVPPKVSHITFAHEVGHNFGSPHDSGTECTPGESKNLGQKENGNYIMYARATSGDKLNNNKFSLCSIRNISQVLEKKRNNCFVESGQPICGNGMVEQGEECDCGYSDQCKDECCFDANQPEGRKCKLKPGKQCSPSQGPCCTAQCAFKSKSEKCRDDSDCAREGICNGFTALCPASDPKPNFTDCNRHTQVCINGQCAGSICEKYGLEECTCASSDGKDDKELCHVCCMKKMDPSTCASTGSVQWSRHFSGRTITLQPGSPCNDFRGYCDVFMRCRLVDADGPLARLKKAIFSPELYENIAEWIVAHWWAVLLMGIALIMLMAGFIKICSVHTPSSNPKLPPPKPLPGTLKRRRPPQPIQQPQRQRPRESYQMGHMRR
Description: (§1) ADAM10 and ADAM17 assays. Both assays were performed as published previously by us. Briefly, both assays followed the same general protocol. In total, 5 μL of the 2× enzyme solution (20 nM) in an assay buffer (10 mM Hepes, 0.001% Brij-35, pH 7.5) were added to solid bottom black 384 plates (Nunc, ThermoFisher, Waltham, MA, USA, cat# 264705). Next, test compounds and pharmacological controls were added to the corresponding wells using a 384-pin tool device (V & P Scientific, San Diego, CA, USA). After 60 min of incubation at RT, the reactions were started via the addition of 5 μL of the 2× solutions of glycosylated substrate DM2 (20 μM). The reactions were incubated at RT for 2 h, after which the fluorescence was measured using a Biotek H1 multimode microplate imager (λexcitation = 360 nm, λemission = 460 nm). IC50 values were calculated by fitting normalized data to the sigmoidal log vs. the response equation utilizing a non-linear regression analysis from GraphPad Prizm 9.

ADAM17 = target: T2, ADAM17 (Homo sapiens, UniProt P78536); test: ADAM17 enzyme assay with glycosylated substrate DM2; format: biochemical; conditions: for selectivity against ADAM17 (in words): ADAM10 vs ADAM17
T2 construct: purchased R & D Systems (Minneapolis, MN, USA)
T2 sequence (P78536 215-824, species assumed): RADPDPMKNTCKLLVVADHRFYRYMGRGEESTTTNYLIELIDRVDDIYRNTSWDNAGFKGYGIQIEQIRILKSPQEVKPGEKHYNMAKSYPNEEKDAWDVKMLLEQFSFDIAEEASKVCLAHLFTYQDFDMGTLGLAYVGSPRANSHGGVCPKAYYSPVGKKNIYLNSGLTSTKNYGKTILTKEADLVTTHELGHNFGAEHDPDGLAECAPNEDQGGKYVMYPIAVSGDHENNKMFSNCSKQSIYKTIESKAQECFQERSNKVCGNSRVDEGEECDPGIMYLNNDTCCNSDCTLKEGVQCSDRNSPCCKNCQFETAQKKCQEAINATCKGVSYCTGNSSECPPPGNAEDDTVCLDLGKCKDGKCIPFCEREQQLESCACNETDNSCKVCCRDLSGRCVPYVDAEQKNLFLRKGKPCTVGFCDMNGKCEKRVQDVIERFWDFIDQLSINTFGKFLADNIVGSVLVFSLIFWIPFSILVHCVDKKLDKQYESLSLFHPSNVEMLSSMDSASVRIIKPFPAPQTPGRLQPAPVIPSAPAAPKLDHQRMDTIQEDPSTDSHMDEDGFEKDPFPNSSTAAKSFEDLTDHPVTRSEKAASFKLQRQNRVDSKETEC
Description: as §1

[1] = test system: collagen-induced arthritis (CIA) model; test: CIA mouse model: clinical arthritis score and paw swelling; format: in vivo, C57 BL/6 mice; conditions: indomethacin 2.5 mg/kg oral, scale 0–4
Description: In vivo efficacy in the CIA mouse model. All animal studies were conducted in accordance with NSU IACUC guidelines. Study protocol #2021.04.DM5 was approved by NSU IACUC before the commencement of the studies. CID 3117694 and indomethacin were ground with a small amount of the dispersing agent (0.5% HPMC (3 cP)–0.5% Tween 80) using a mortar and a pestle and mixed repeatedly to form a smooth paste. The paste was moved to a graduated cylinder and filled up to the required volume with the dispersing agent to form a suspension, as described elsewhere. The test compound (10, 30, and 50 mg/kg) and indomethacin (2.5 mg/kg) were administered with a mouse gavage needle (gauge no: 18, BD, catalog number: 653902) through the oral route as a suspension with a 5 mL/kg dose volume (from day 0 to day 28). In this study, 6–8-week-old C57 BL/6 mice from Charles River (male and female) were used. Animals were randomly assigned to one of the following six groups: (1) normal (non-RA control), (2) RA control untreated, (3) RA control treated with 2.5 mg/kg/day indomethacin, and 3 test groups (CID 3117694 (10 mg/kg/day, 30 mg/kg/day, and 50 mg/kg/day)) to provide an estimate for the lead compound’s efficacy range. Each group had three males and three females assigned to the control for gender-based differences. Arthritis was induced in the right paws of the mice under anaesthesia. The left paw of the mice was used as a control. A total of 10 µL collagen from bovine (type II collagen) nasal septum emulsion (2 mg/mL) was injected into the right knee joint with a glass Hamilton syringe and 25 G needles for intraarticular (i.a.) injection, followed by a total of 100 µL Complete Freund’s adjuvant (CFA) emulsion was injected at the back of mice using a syringe with 25 G needles subcutaneously (s.c.). On day 14 after the first injection, the mice were injected, i.e., with 10 µL of collagen from the bovine nasal septum ([…]) and s.c. with a 100 µL CFA emulsion for a boost injection. Arthritis progression was monitored using a clinical arthritis scoring system (0–4), and paw swelling was measured with the help of a plethysmograph on days 0, 14, 21, and 28 after the induction of arthritis. […] After the administration of a primary dose of collagen from the bovine nasal septum, CFA scoring was assessed. Measurements were taken on days 0, 14, 21, and 28 after the induction of arthritis in induced paws (right paw) and non-arthritis paws (left paw). CID 3117694 (10 mg/kg/day, 30 mg/kg/day, and 50 mg/kg/day) and pharmacological control (indomethacin 2.5 mg/kg/day) treatment were given every day for 28 days beginning from day 1 via oral gavage in hydroxy-propyl-methyl cellulose (HPMC) suspension.

TNFα = test: RA serum marker ELISA, TNFα, CIA mice; format: in vivo, C57 BL/6 mice; conditions: CID 3117694 50 mg/kg/day; indomethacin 2.5 mg/kg
Description: (§2) The sample size for therapeutic evaluation was calculated using power analysis based on experimental data from similar studies. In a two-sided test and setting the α value at 0.05 and desired power at 0.95, the sample size turned out to be 5 per group. We also expected deaths during the experiments; therefore, we used the formula Nt = N/1-q, where Nt is the number of mice initially used, N is the number required at the end of the study, and q is the proportion of attrition, which is generally 10%. Thus, at the end of the study period, we expected to have data from at least 6 mice per group, which is enough to attain statistical significance if it exists. Data were analyzed using a one-way ANOVA followed by Dunnett’s test compared with the vehicle control. At the end of the study, the mice were anesthetized and sacrificed using CO2 euthanasia. The hind paws of the mice were subjected to a histopathological examination, and the serum was analyzed for CRP, TNF-α, IL-6, and IL-10, as described in the below sections.
(§3) RA serum marker analysis. Blood was collected from the tail vein, and 100 µL was used for the assays. All assays were conducted using the manufacturer’s instructions for the respective assay kits. The following assay kits were purchased: Mouse TNF-α GENLISA™ ELISA (Krishgen BioSystems cat#KB2145, Mumbai, India), Mouse IL-10 GENLISA™ ELISA (Krishgen BioSystems cat#KB2072), Mouse hsC-Reactive Protein, hs-CRP GENLISA™ ELISA (Krishgen BioSystems cat#KLM0318), Mouse IL-6 GENLISA™ ELISA (Krishgen BioSystems cat#KB2068).

C-reactive protein (CRP) = test: RA serum marker ELISA, CRP, CIA mice; format: in vivo, C57 BL/6 mice; conditions: CID 3117694 50 mg/kg/day; indomethacin 2.5 mg/kg
Description: as §2, §3

IL-6 = test: RA serum marker ELISA, IL-6, CIA mice; format: in vivo, C57 BL/6 mice; conditions: CID 3117694 50 mg/kg/day; indomethacin 2.5 mg/kg
Description: as §2, §3

IL-10 = test: RA serum marker ELISA, IL-10, CIA mice; format: in vivo, C57 BL/6 mice; conditions: CID 3117694 50 mg/kg/day; indomethacin 2.5 mg/kg
Description: as §2, §3

[2] = test system: articular joints affected by RA; test: Histopathology (H & E) of arthritic joint, CIA mice; format: in vivo, C57 BL/6 mice; conditions: indomethacin 2.5 mg/kg/day
Description: as §2, with “sections. Histology. Limbs from euthanized animals were preserved in buffered formalin, decalcified, embedded, sectioned, and stained with hematoxylin and eosin (H & E). Microscopic images were acquired using the Lx 400 microscope (Labomed, Fremont, CA, USA).” for “sections.”

| SMILES | IC50 (ADAM10) [µM] | IC50 (ADAM17) [µM] | activity against ADAM10 (in words) (ADAM10) | further results |
| --- | --- | --- | --- | --- |
| Cc1c(Cl)cccc1NC(=O)C(=O)NNC(=O)c1ccc(C(C)(C)C)cc1 [CID 2218294] | > 100 | > 100 | – | – |
| Cc1ccccc1NC(=O)C(=O)NNC(=O)c1ccc(Cl)cc1 [CID 2869359] | > 100 | > 100 | did not rescue the activity | – |
| COc1ccc2c(c1)c(CC(=O)O)c(C)n2C(=O)c1ccc(Cl)cc1 [indomethacin, reference compound] | – | – | – | disease score ([1]; day 21): 2; disease score ([1]; day 28): 1; TNFα blood level vs healthy control (TNFα): the same as that of the healthy controls; CRP blood level vs healthy control (C-reactive protein (CRP)): the same as that of the healthy controls; IL-6 blood level vs healthy control (IL-6): the same as that of the healthy controls; IL-10 blood level vs healthy control (IL-10): the same as that of the healthy controls; histopathological findings (in words) [2]: presence of inflammation and hyperplasia; histopathological findings (in words) ([2]; listed as Indomethacin): only residual inflammation and hyperplasia |

Further lines, with some results ahead:

| IC50 (ADAM10) [µM] | IC50 (ADAM17) [µM] | activity against ADAM10 (in words) (ADAM10) | SMILES | further results |
| --- | --- | --- | --- | --- |
| > 100 | > 100 | – | CCc1ccc(NC(=O)C(=O)NNC(=O)c2ccc(C(C)(C)C)cc2)cc1 [CID 2113284] | – |
| > 100 | > 100 | – | Cc1ccc(NC(=O)C(=O)NNC(=O)c2ccc(C(C)(C)C)cc2)cc1Cl [CID 2213247] | – |
| 33 | 33 | reduced affinity | COc1ccccc1NC(=O)C(=O)NNC(=O)c1ccccc1Cl [CID 2273473] | selectivity against ADAM17 (in words) (ADAM17): no selectivity |
| 2.8 | 2 | retrieved the activity | Cc1ccccc1C(=O)NNC(=O)C(=O)Nc1cccc2ccccc12 [CID 2841765] | selectivity against ADAM17 (in words) (ADAM17): selectivity against ADAM17 was lost |
